According to ChEMBL document CHEMBL3734692, “Design and synthesis of 2-oxindole based multi-targeted inhibitors of PDK1/Akt signaling pathway for the treatment of glioblastoma multiforme” (Eur J Med Chem, 2015):
Activity calls are given as the source filed them. The rule behind the calls is not given here.

How the values were obtained:
[1] = biological target: Casein kinase I isoform alpha (Homo sapiens) (UniProt P48729); experiment: Inhibition of CK1alpha1 (unknown origin) at 1 uM by selectscreen kinase profiling assay in presence of ATP
[2] = biological target: Inhibitor of nuclear factor kappa-B kinase subunit beta (Homo sapiens) (UniProt O14920); experiment: Inhibition of IKKbeta (unknown origin) at 1 uM by selectscreen kinase profiling assay in presence of ATP
[3] = biological target: Dual specificity mitogen-activated protein kinase kinase 1 (Homo sapiens) (UniProt Q02750); experiment: Inhibition of MEK1 (unknown origin) at 1 uM by selectscreen kinase profiling assay in presence of ATP
[4] = biological target: Mitogen-activated protein kinase 14 (Homo sapiens) (UniProt Q16539); experiment: Inhibition of p38 alpha (unknown origin) at 1 uM by selectscreen kinase profiling assay in presence of ATP
[5] = biological target: Serine/threonine-protein kinase MARK1 (Homo sapiens) (UniProt Q9P0L2); experiment: Inhibition of MARK1 (unknown origin) at 1 uM by selectscreen kinase profiling assay in presence of ATP
Homo sapiens = organism: Homo sapiens; experiment: Inhibition of PKCbeta I (unknown origin) at 1 uM by selectscreen kinase profiling assay in presence of ATP
[6] = biological target: Protein kinase C delta type (Homo sapiens) (UniProt Q05655); experiment: Inhibition of PKCdelta (unknown origin) at 1 uM by selectscreen kinase profiling assay in presence of ATP
[7] = biological target: Rho-associated protein kinase 1 (Homo sapiens) (UniProt Q13464); experiment: Inhibition of ROCK1 (unknown origin) at 1 uM by selectscreen kinase profiling assay in presence of ATP
[8] = biological target: Rho-associated protein kinase 2 (Homo sapiens) (UniProt O75116); experiment: Inhibition of ROCK2 (unknown origin) at 1 uM by selectscreen kinase profiling assay in presence of ATP
[9] = biological target: Phosphatidylinositol 4-kinase beta (Homo sapiens) (UniProt Q9UBF8); experiment: Inhibition of PI4Kbeta (unknown origin) at 1 uM by selectscreen kinase profiling assay in presence of ATP
[10] = biological target: T1, 3-phosphoinositide-dependent protein kinase 1 (Homo sapiens, UniProt O15530); experiment: Inhibition of PDK1 (unknown origin) in presence of 25 uM ATP incubated for 1 hr by Z'Lyte assay
T1 sequence (O15530 whole entry): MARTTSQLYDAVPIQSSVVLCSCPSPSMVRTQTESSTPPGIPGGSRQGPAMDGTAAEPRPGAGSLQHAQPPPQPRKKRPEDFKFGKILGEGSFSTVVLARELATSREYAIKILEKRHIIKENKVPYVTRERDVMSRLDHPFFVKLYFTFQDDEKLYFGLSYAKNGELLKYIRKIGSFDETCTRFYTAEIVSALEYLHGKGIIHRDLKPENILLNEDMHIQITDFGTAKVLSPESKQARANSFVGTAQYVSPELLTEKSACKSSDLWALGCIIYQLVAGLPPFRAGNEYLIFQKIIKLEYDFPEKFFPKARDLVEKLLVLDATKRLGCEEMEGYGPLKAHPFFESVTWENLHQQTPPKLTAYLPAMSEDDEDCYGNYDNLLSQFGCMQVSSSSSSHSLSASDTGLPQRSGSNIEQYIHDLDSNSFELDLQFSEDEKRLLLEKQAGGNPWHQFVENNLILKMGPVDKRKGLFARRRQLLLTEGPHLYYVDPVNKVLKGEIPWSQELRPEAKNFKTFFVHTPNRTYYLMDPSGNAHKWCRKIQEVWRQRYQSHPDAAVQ

[11] = Induction of apoptosis in human GSC derived from ANGM-CSS cells assessed as dead cells at 1 uM after 7 days by annexin V-FITC/7-AAD dual staining based cell analysis (reference value: 2.33%); type: functional
[12] = Induction of apoptosis in human GSC derived from ANGM-CSS cells assessed as late apoptotic cells at 1 uM after 7 days by annexin V-FITC/7-AAD dual staining based cell analysis (reference value: 2.51%); type: functional
[13] = Induction of apoptosis in human GSC derived from ANGM-CSS cells assessed as live cells at 1 uM after 7 days by annexin V-FITC/7-AAD dual staining based cell analysis (reference value: 91.88%); type: functional
[14] = Induction of apoptosis in human GSC derived from ANGM-CSS cells assessed as early apoptotic cells at 1 uM after 7 days by annexin V-FITC/7-AAD dual staining based cell analysis (reference value: 3.29%); type: functional
[15] = Cell cycle arrest in human GSC derived from ANGM-CSS cells assessed as accumulation at G0/G1 phase at 1 uM after 7 days by based fluorescent reagent based cell analysis (reference value: 71.4%); type: functional
[16] = Cell cycle arrest in human GSC derived from ANGM-CSS cells assessed as accumulation at S phase at 1 uM after 7 days by based fluorescent reagent based cell analysis (reference value: 1.9%); type: functional
ANGM-CSS [17] = experiment: Effect on human GSC morphology derived from ANGM-CSS cells assessed as reduction in area occupied by floating spheres at 1 uM after 7 days by microscopic analysis; type: functional, cell-based
ANGM-CSS [18] = experiment: Effect on human GSC morphology derived from ANGM-CSS cells assessed as outgrowth of cellular processes at 1 uM after 7 days by microscopic analysis; type: functional, cell-based
ANGM-CSS [19] = experiment: Induction of human GSC differentiation derived from ANGM-CSS cells assessed as down regulation of CD133 mRNA expression at 1 uM after 7 days by RT-PCR analysis; type: functional, cell-based
U-118-MG = experiment: Antiproliferative activity against human U118MG cells assessed as inhibition of cell growth after 72 to 144 hrs by WST1 assay; type: functional, cell-based
ANGM-CSS [20] = experiment: Antiproliferative activity against human ANGM-CSS cells assessed as inhibition of cell growth after 72 to 144 hrs by WST1 assay; type: functional, cell-based
ASPC1 = experiment: Cytotoxicity against human AsPC1 cells assessed as cell viability 10 uM after 72 hrs by cell counting analysis relative to control; type: functional
[21] = Antiproliferative activity against human ANGM-CSS cells assessed as inhibition of cell growth after 72 hrs by WST1 assay; type: functional
[22] = Antiproliferative activity against human ANGM-CSS cells assessed as inhibition of cell growth after 144 hrs by WST1 assay; type: functional
[23] = Antiproliferative activity against human U118MG cells assessed as inhibition of cell growth after 72 hrs by WST1 assay; type: functional; conditions: U-118-MG
[24] = Induction of apoptosis in human ANGM-CSS cells assessed as live cells at 1 uM after 7 days by annexin V-FITC/7-AAD dual staining based cell analysis (reference value: 92.21%); type: functional
[25] = Cell cycle arrest in human ANGM-CSS cells assessed as accumulation at S phase at 1 uM after 7 days by based fluorescent reagent based cell analysis (reference value: 4.1%); type: functional
[26] = biological target: Aurora kinase A (Homo sapiens) (UniProt O14965); experiment: Inhibition of AURKA (unknown origin) at 1 uM by selectscreen kinase profiling assay in presence of ATP
[27] = biological target: RAC-beta serine/threonine-protein kinase (Homo sapiens) (UniProt P31751); experiment: Inhibition of AKT2 (unknown origin) at 1 uM by selectscreen kinase profiling assay in presence of ATP
RAC-beta serine/threonine-protein kinase (Homo sapiens), sequence (P31751 whole entry, looked up): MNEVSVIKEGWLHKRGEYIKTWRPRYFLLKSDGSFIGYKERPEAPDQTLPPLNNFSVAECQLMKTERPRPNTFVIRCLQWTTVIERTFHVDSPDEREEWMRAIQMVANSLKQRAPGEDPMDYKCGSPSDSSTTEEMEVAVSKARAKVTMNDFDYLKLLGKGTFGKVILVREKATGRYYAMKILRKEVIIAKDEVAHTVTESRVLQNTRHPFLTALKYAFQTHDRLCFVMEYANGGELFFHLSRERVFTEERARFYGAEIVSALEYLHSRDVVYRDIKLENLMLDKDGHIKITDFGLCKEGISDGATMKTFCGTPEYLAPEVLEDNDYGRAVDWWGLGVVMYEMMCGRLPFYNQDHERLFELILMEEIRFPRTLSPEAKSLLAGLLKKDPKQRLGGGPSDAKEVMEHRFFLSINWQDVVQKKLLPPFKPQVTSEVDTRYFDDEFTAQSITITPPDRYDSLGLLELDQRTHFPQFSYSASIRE

Rho-associated protein kinase 2 (Homo sapiens), sequence (O75116 whole entry, looked up): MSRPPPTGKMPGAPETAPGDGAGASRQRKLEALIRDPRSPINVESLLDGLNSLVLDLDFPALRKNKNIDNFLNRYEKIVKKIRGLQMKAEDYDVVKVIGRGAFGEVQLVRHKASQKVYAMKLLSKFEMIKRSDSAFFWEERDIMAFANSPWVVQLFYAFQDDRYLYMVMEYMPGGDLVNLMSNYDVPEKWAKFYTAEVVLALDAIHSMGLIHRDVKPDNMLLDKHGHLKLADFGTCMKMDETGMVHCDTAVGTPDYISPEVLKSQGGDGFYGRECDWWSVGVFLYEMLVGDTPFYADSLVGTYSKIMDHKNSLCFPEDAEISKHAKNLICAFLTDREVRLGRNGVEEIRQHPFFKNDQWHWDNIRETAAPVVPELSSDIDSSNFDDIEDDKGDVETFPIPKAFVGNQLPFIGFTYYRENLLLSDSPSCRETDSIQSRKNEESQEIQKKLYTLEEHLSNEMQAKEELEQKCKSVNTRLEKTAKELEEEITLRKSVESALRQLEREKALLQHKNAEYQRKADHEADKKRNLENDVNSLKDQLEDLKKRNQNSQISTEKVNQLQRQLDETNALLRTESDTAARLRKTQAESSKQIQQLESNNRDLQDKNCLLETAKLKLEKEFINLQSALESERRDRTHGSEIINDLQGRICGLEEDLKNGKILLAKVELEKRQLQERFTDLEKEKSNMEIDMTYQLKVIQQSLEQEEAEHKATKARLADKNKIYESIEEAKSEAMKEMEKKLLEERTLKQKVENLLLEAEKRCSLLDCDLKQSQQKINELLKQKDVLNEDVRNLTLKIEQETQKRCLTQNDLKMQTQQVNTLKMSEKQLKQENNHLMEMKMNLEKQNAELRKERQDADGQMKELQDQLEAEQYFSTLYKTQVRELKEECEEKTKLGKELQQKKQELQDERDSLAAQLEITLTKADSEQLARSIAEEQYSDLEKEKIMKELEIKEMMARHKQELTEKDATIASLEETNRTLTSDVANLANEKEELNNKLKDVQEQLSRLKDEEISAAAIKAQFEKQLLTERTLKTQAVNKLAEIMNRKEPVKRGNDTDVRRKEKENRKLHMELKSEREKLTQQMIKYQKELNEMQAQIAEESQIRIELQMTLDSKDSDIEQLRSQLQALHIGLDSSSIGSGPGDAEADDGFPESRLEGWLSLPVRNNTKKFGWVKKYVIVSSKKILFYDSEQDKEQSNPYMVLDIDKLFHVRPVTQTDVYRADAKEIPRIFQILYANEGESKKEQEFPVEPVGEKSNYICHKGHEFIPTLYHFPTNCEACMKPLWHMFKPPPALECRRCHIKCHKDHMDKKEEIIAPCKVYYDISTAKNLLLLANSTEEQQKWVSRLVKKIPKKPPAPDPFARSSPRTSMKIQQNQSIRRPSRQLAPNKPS
Dual specificity mitogen-activated protein kinase kinase 1 (Homo sapiens), sequence (Q02750 whole entry): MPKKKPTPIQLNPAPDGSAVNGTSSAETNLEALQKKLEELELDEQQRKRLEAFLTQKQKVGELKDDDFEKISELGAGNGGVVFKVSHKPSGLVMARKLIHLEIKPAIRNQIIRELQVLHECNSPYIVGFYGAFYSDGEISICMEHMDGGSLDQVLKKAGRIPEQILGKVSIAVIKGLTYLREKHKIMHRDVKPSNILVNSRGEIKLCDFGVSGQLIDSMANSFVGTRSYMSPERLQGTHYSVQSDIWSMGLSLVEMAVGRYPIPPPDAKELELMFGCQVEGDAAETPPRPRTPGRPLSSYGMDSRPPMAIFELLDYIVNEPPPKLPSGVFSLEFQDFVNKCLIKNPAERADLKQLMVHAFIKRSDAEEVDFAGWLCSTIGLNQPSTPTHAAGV
Inhibitor of nuclear factor kappa-B kinase subunit beta (Homo sapiens), sequence (O14920 whole entry): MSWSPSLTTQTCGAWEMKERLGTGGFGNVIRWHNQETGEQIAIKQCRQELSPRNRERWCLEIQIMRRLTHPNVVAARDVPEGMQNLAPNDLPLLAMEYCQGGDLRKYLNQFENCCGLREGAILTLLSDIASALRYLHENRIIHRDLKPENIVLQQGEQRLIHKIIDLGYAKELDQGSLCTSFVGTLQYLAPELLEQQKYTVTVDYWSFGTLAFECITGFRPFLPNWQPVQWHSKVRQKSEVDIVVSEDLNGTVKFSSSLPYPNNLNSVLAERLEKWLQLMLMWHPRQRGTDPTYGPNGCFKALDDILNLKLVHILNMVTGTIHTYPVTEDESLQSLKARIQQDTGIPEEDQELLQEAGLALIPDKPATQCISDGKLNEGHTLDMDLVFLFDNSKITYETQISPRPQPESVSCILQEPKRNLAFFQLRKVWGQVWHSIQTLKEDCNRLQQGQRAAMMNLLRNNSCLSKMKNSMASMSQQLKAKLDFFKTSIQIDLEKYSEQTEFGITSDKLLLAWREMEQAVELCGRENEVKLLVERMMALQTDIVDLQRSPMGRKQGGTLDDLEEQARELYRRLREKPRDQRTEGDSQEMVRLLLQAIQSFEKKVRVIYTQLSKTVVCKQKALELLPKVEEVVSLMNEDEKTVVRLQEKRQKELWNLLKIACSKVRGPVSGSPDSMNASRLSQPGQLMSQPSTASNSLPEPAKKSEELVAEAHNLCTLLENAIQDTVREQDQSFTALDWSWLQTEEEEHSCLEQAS
Serine/threonine-protein kinase MARK1 (Homo sapiens), sequence (Q9P0L2 whole entry, looked up): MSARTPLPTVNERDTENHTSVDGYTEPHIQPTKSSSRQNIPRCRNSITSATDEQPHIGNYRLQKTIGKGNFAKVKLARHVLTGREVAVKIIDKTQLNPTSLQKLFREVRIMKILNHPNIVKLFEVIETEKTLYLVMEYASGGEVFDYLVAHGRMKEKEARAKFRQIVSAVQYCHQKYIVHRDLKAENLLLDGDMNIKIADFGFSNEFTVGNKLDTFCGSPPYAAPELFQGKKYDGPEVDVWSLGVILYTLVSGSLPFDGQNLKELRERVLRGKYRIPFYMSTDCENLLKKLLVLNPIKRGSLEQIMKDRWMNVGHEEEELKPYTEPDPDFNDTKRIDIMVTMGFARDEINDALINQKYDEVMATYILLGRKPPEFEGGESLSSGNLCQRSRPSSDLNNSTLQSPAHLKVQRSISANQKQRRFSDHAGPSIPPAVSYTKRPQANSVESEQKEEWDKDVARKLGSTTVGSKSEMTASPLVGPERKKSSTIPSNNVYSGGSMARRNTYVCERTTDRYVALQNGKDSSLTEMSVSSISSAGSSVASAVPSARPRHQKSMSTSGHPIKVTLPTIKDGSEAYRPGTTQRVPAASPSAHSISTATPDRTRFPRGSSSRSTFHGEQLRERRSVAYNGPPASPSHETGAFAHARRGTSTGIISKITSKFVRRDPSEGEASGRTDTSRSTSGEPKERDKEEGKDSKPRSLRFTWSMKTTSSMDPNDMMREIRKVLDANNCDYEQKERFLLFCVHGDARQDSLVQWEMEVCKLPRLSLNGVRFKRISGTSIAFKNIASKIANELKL
Casein kinase I isoform alpha (Homo sapiens), sequence (P48729 2-337 limits assumed): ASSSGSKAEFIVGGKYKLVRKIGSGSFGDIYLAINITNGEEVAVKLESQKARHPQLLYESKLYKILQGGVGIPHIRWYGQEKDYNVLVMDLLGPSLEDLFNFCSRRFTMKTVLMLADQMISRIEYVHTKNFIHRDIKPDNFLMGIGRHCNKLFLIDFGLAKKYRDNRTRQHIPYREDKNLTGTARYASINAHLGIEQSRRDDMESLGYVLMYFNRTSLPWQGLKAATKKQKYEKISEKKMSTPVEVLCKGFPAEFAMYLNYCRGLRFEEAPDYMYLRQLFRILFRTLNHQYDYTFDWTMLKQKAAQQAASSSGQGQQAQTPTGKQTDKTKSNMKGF
Aurora kinase A (Homo sapiens), sequence (O14965 whole entry): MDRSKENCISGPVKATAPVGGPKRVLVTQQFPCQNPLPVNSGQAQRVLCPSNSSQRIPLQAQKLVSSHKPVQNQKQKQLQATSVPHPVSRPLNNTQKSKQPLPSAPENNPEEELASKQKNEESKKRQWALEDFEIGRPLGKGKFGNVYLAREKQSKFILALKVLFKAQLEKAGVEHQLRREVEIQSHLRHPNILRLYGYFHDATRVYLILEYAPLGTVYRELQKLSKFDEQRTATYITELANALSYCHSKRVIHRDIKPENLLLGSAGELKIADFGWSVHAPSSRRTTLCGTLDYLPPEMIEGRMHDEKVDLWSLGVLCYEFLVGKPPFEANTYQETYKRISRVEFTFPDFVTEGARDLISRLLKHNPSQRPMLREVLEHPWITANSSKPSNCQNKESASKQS
Mitogen-activated protein kinase 14 (Homo sapiens), sequence (Q16539 whole entry): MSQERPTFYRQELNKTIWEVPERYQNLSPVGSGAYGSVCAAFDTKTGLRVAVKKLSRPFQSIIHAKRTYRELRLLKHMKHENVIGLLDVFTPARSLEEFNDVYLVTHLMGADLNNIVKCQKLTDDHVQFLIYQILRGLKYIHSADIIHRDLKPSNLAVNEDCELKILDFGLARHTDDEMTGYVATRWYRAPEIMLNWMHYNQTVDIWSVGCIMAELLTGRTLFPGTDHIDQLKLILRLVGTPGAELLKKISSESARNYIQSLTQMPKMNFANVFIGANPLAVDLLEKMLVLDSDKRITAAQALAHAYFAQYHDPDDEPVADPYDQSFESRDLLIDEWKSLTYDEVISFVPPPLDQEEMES

## COc1cc2c(cc1OC)CN(CC(=O)Nc1ccc3c(c1)/C(=C/c1cnc[nH]1)C(=O)N3)CC2
[1]
  inhibition: 4%
[2]
  inhibition: 6%
[3]
  inhibition: 37%
[4]
  inhibition: 4%
[5]
  inhibition: 27%
Homo sapiens
  inhibition: -6%
[6]
  inhibition: -5%
[7]
  inhibition: 8%
[8]
  inhibition: -5%
[9]
  inhibition: 5%
[10]
  IC50: 0.998 µM
[11]
  Activity: 1.1%
[12]
  Activity: 4.93%
[13]
  Activity: 81.32%
[14]
  Activity: 12.65%
[15]
  Activity: 69%
[16]
  Activity: 1%
ANGM-CSS [17]
  Activity: Active
ANGM-CSS [18]
  Activity: Active
ANGM-CSS [19]
  Activity: Active
U-118-MG
  growth inhibition (GI): Dose-dependent effect
ANGM-CSS [20]
  growth inhibition (GI): Dose-dependent effect
ASPC1
  Activity: 68.14%
[21]
  GI50: 7.73 µM
[22]
  GI50: 3.98 µM
[23]
  GI50: 14.6 µM
[24]
  Activity: 79.63%
[25]
  Activity: 4.1%
[26]
  inhibition: 37%
[27]
  inhibition: 2%
